From patent publication US8338565B2, “Macrocyclic compounds for inhibition of tumor necrosis factor alpha” (Ensemble Therapeutics Corporation, priority 2008, dated 2012)
Read-outs that look alike come from different tables or passages of the source. Numbered stars: 1 amine (or outer) side, 2 acyl side, 3 side chain; on linkers, the order of the positions; unused ones are H or OH. Bridge positions count the residues as written; N and C are the ends. Square brackets hold non-standard residues; d marks the D form. Peptide text beside a SMILES is read from it. Tartaroyl(2R,3R-(OAc)2) = CC(=O)O[C@@H](C(=O)[*:1])[C@@H](OC(C)=O)C(=O)[*:2]; Phe(4-CF3) = N[C@@H](Cc1ccc(C(F)(F)F)cc1)C(=O)O; dPhe(4-CF3) = N[C@H](Cc1ccc(C(F)(F)F)cc1)C(=O)O; Bip = N[C@@H](Cc1ccc(-c2ccccc2)cc1)C(=O)O; dBip = N[C@H](Cc1ccc(-c2ccccc2)cc1)C(=O)O; dPhe(4-NH2) = Nc1ccc(C[C@@H](N)C(=O)O)cc1; Phe(4-Br) = N[C@@H](Cc1ccc(Br)cc1)C(=O)O; Phe(4-NH2) = Nc1ccc(C[C@H](N)C(=O)O)cc1; d(hPhe) = N[C@H](CCc1ccccc1)C(=O)O; d2Thi = N[C@H](Cc1cccs1)C(=O)O; Suc = O=C(CCC(=O)[*:2])[*:1]; Ac3c = NC1(C(=O)O)CC1; GABA = NCCCC(=O)O; βAla = NCCC(=O)O

Experiments:
[1] = system: TNF-α (degradation of IkB in HeLa cells or A431 cells); experiment: Human cell-based assay: inhibition of TNF-α induced degradation of IkB; details: for inhibition at 5 µM: read-out: Inhibition at Various Compound Concentrations, 5 μM; for inhibition at 10 µM: read-out: Inhibition at Various Compound Concentrations, 10 μM; for inhibition at 25 µM: 25 μM compound, read-out: Inhibition at Various Compound Concentrations, 25 μM
Method: We used a human cell-based assay to determine the TNF-α antagonistic activity of the compounds of this invention based upon the ability of the compounds to inhibit the degradation of IkB in those cells. The assay was performed on either HeLa cells or A431 cells.
On Day 1, wells of a 24-well tissue culture plate were seeded with cells that had been harvested from cultures in T-75 flasks by standard trypsin/EDTA treatment. The harvested cells were suspended in EMEM/10% FBS/P/S (100,000 HeLa cells/mL or 200,000 A431 cells/mL) and 1 mL aliquots were placed into each well. The cells were incubated overnight at 37° C. in a humidified CO2 incubator. On day 2, the cells were approximately 95% confluent.
Test and control compounds were diluted to a 1 mM solution by dilution in DMSO. The assay was run in Costar tubes. Into each tube was placed 2.5 or 5.0 μL of test compound (for testing 5 μM and 10 μM concentrations, respectively), 2.5 μL of 100× TNF-α solution (200 ng/mL TNF-α in EMEM containing 1μg/mL cycloheximide) and, for those tubes containing 2.5 μL of compound, an additional 2.5 μL of DMSO. To each tube was then added 0.5 mL of EMEM containing 1μg/mL cycloheximide. Negative control tubes contained either a) no compound, or b) no TNF-α. Tubes were then incubated for 30 minutes at room temperature.
Once incubation had begun, the media was aspirated from the cells in the 24-well plates. Sufficient EMEM/10% FBS/P/S containing 1 ug/mL cycloheximide was then added to cover the cells (approximately 3 mL) and the cells were retuned to the 37° C. humidified CO2 incubator until compound incubation was completed. The media was then aspirated from the cells, 0.2 mL of the compound solution was added and the cells re-incubated at 37° C. for 30 minutes. The plates were then placed on ice, the compound solution was aspirated from each well, and the cells washed once with 1 mL of cold PBS. Cells were then fixed with 500 μL of 3.7% formaldehyde in PBS (“fix solution”) for 20 minutes at room temperature. The fix solution was decanted and the cells permeabilized by 4× washing with 500 uL PBS/0.1% Triton X-100. After the final permeabilization wash, the cells were treated with 500 uL of Odyssey blocking buffer (OBB) and incubated at room temperature with shaking for 90 minutes.
The OBB was decanted and then to each well was then added 125 μL each of mouse anti-IkB CST#4814 (diluted 1:200 in OBB) and rabbit anti-beta-tubulin CST#2146 (diluted 1:200 in OBB). Plates were sealed with parafin and incubated overnight at room temperature with shaking.
On day 3, the antibody solution was removed from the cells and the cells were washed 5× with 0.5 mL PBST for five minutes each on a shaker. To each well was then aded 125 μL of a secondary antibody solution containing goat anti-mouse IgG-IRDye 800 and goat anti-rabbit IgG-IRDye (each diluted 1:500 in OBB+0.2% Tween 20). The plates were covered with aluminum foil and incubated for 1 hour at room temperature with shaking. The secondary antibody solution was removed and the cells washed 3× with 0.5 mL PBST for five minutes each on a shaker. Cells were then scanned by LICOR with the following settings: 700 intensity=6.0, 800 intensity=6.5; microplate2 settings with 3.0 mm offset; 169 resolution. LICOR values were fitted to an equation for a sigmoidal curve and IC50 values calculated from the fitted parameters. […] Blank cells indicate that the compound was not tested at that concentration. Certain compounds that were tested more than once and the values reflect the average of the multiple tests.

[2] = molecular target: T1, TNFα / TNFα receptor (TNFα R1/Fc) (Homo sapiens, UniProt P01375); experiment: Inhibition of binding of TNFα to the TNFα receptor (plate ELISA competition); details: Table 2
T1 construct: purchased R&D Systems
Outline: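 Compound dilutions were preincubated 30 min at RT with 8.33 nM TNFα R1/Fc in PBST with 2% DMSO, then added to wells coated with 15 nM TNFα for 30 min. Bound receptor was detected with HRP anti-human Fc and TMB, read as A450.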

[3] = Activity (IC50, inhibition of TNFα binding to TNFα R1/Fc)
[4] = 5 μM compound, HeLa or A431 cells
[5] = 10 μM compound, HeLa or A431 cells
[6] = read-out: Activity (IC50, inhibition of TNFα binding to TNFα R1/Fc)

T1 sequence (P01375 77-233 limits assumed, species assumed): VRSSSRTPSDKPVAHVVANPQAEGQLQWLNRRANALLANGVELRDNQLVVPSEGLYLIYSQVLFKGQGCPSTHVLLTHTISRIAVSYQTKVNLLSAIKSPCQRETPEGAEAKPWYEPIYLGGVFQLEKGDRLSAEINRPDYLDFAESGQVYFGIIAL

Row | Structure (SMILES) | IC50 [2, 6] | inhibition at 5 µM [1] | inhibition at 10 µM [1] | IC50 [2, 3] | inhibition at 5 µM [1, 4] | inhibition at 10 µM [1, 5] | inhibition at 25 µM ([1]; HeLa or A431 cells)
1 | O=C1COc2ccc(cc2)C[C@@H](C(=O)N[C@@H](CCc2ccccc2)C(=O)O)NC(=O)[C@@H](CCc2ccccc2)NC(=O)[C@H](Cc2ccc(-c3ccccc3)cc2)NC(=O)[C@@H](Cc2cccs2)N1 [Compound 320] | – | 10 to 50% | > 80% | < 10 µM | – | – | –
2 | O=C(O)CCNC(=O)[C@@H]1Cc2ccc(cc2)OCC(=O)N[C@H](Cc2cccs2)C(=O)N[C@@H](Cc2ccc(-c3ccccc3)cc2)C(=O)N[C@H](CCc2ccccc2)C(=O)N1 [Compound 301] | < 10 µM | – | – | – | < 10% | < 10% | –
3 | O=C1COc2ccc(cc2)C[C@@H](C(=O)O)NC(=O)[C@H](Cc2ccccc2)NC(=O)[C@H](Cc2ccc(-c3ccc(C(=O)OCc4ccccc4)cc3)cc2)NC(=O)[C@H](Cc2cccs2)N1 [Compound 396] | < 10 µM | 10 to 50% | 50 to 80% | – | – | – | –
4 | O=C1CCC(=O)N[C@H](Cc2cccs2)C(=O)N[C@@H](Cc2ccc(Br)cc2)C(=O)N[C@H](Cc2ccccc2)C(=O)N[C@H](C(=O)O)Cc2ccc(cc2)N1 [Compound 85] ([d2Thi][Phe(4-Br)][dF][Phe(4-NH2)]-OH; linker N-4 via Suc) | 10 to 30 µM | – | – | – | – | – | < 10%
5 | C[C@@H](NC(=O)[C@@H]1Cc2ccc(cc2)OCC(=O)N[C@H](Cc2cccs2)C(=O)N[C@@H](Cc2ccc(-c3ccccc3)cc2)C(=O)N[C@H](CCc2ccccc2)C(=O)N1)C(=O)O [Compound 305] | < 10 µM | – | – | – | – | < 10% | –
6 | O=C1COc2ccc(cc2)C[C@@H](C(=O)N[C@@H](Cc2ccccc2)C(=O)O)NC(=O)[C@@H](CCc2ccc(C(F)(F)F)cc2)NC(=O)[C@H](Cc2ccccc2)NC(=O)[C@@H](Cc2ccc(C(F)(F)F)cc2)N1 [Compound 157] | < 10 µM | – | – | – | 10 to 50% | 50 to 80% | –
7 | O=C1N[C@H](CCc2ccccc2)C(=O)N[C@@H](C(=O)O)Cc2ccc(cc2)NC(=O)[C@H](O)[C@@H](O)C(=O)N[C@H](Cc2ccccc2)C(=O)N[C@H]1Cc1ccc(Cl)cc1Cl [Compound 239] | < 10 µM | – | – | – | < 10% | < 10% | –
8 | O=C1COc2ccc(cc2)C[C@@H](C(=O)NC2(C(=O)O)CC2)NC(=O)[C@@H](CCc2ccccc2)NC(=O)[C@H](Cc2ccc(-c3ccccc3)cc2)NC(=O)[C@@H](Cc2cccs2)N1 [Compound 299] | – | < 10% | < 10% | < 10 µM | – | – | –
9 | O=C(O)CCNC(=O)[C@H]1Cc2ccc(cc2)NC(=O)CCC(=O)N[C@H](CCc2ccccc2)C(=O)N[C@@H](Cc2ccc(C(F)(F)F)cc2)C(=O)N[C@H](Cc2ccccc2)C(=O)N1 [Compound 15] ([d(hPhe)][Phe(4-CF3)][dF][dPhe(4-NH2)][βAla]-OH; linker N-4 via Suc) | 10 to 30 µM | – | – | – | – | < 10% | –
10 | NCCCC(=O)N[C@@H]1CC(=O)Nc2ccc(cc2)C[C@@H](C(=O)O)NC(=O)[C@@H](Cc2ccccc2)NC(=O)[C@H](Cc2ccc(-c3ccccc3)cc2)NC(=O)[C@@H](Cc2cccs2)NC1=O [Compound 380] (H-[GABA][dD][d2Thi][Bip][dF][Phe(4-NH2)]-OH; lactam 2-6) | < 10 µM | – | – | – | < 10% | < 10% | –
11 | O=C1CCC(=O)N[C@H](CCc2ccccc2)C(=O)N[C@@H](Cc2ccc(C(F)(F)F)cc2)C(=O)N[C@H](Cc2ccccc2)C(=O)N[C@H](C(=O)NC2(C(=O)O)CC2)Cc2ccc(cc2)N1 [Compound 18] ([d(hPhe)][Phe(4-CF3)][dF][Phe(4-NH2)][Ac3c]-OH; linker N-4 via Suc) | 10 to 30 µM | – | – | – | 50 to 80% | 10 to 50% | –
12 | CC(=O)O[C@H]1C(=O)Nc2ccc(cc2)C[C@H](C(=O)O)NC(=O)[C@@H](CCc2ccccc2)NC(=O)[C@H](Cc2ccc(-c3ccccc3)cc2)NC(=O)[C@@H](Cc2cccs2)NC(=O)[C@@H]1OC(C)=O [Compound 217] ([d2Thi][Bip][d(hPhe)][dPhe(4-NH2)]-OH; linker N-4 via Tartaroyl(2R,3R-(OAc)2)) | < 10 µM | – | – | – | < 10% | < 10% | –
13 | NCCCC(=O)N[C@H]1CC(=O)Nc2ccc(cc2)C[C@@H](C(=O)O)NC(=O)[C@@H](Cc2ccccc2)NC(=O)[C@H](Cc2ccc(-c3ccccc3)cc2)NC(=O)[C@@H](Cc2cccs2)NC1=O [Compound 379] (H-[GABA]D[d2Thi][Bip][dF][Phe(4-NH2)]-OH; lactam 2-6) | < 10 µM | – | – | – | 50 to 80% | 10 to 50% | –

Now from value to compound, other results behind:

Row | IC50 [2, 6] | Structure (SMILES) | inhibition at 5 µM [1] | inhibition at 10 µM [1] | IC50 [2, 3] | inhibition at 5 µM [1, 4] | inhibition at 10 µM [1, 5] | inhibition at 25 µM ([1]; HeLa or A431 cells)
14 | 10 to 30 µM | O=C1CCC(=O)N[C@H](Cc2cccs2)C(=O)N[C@@H](Cc2ccc(-c3ccccc3)cc2)C(=O)N[C@H](Cc2ccccc2)C(=O)N[C@H](C(=O)O)Cc2ccc(cc2)N1 [Compound 1] ([d2Thi][Bip][dF][Phe(4-NH2)]-OH; linker N-4 via Suc) | – | – | – | – | – | 10 to 50%
15 | 10 to 30 µM | CC(C)[C@H](NC(=O)[C@@H]1Cc2ccc(cc2)NC(=O)CCC(=O)N[C@H](Cc2cccs2)C(=O)N[C@@H](Cc2ccc(-c3ccccc3)cc2)C(=O)N[C@H](Cc2ccccc2)C(=O)N1)C(=O)O [Compound 26] ([d2Thi][Bip][dF][Phe(4-NH2)]V-OH; linker N-4 via Suc) | – | – | – | – | – | 10 to 50%
16 | < 10 µM | O=C1CCC(=O)N[C@H](Cc2cccs2)C(=O)N[C@@H](Cc2ccc(-c3ccccc3)cc2)C(=O)N[C@H](Cc2ccccc2)C(=O)N[C@@H](C(=O)N[C@@H](Cc2ccccc2)C(=O)O)Cc2ccc(cc2)N1 [Compound 198] ([d2Thi][Bip][dF][dPhe(4-NH2)]F-OH; linker N-4 via Suc) | – | – | – | – | – | 50 to 80%
17 | < 10 µM | O=C1CCC(=O)N[C@H](CCc2ccccc2)C(=O)N[C@@H](Cc2ccc(C(F)(F)F)cc2)C(=O)N[C@H](Cc2ccccc2)C(=O)N[C@@H](C(=O)N[C@@H](Cc2ccccc2)C(=O)O)Cc2ccc(cc2)N1 [Compound 12] ([d(hPhe)][Phe(4-CF3)][dF][dPhe(4-NH2)]F-OH; linker N-4 via Suc) | – | – | – | 10 to 50% | 10 to 50% | –
18 | > 100 µM | O=C1CCC(=O)N[C@H](Cc2cccs2)C(=O)N[C@H](Cc2ccc(-c3ccccc3)cc2)C(=O)N[C@H](Cc2ccccc2)C(=O)N[C@H](C(=O)O)Cc2ccc(cc2)N1 [Compound 194] ([d2Thi][dBip][dF][Phe(4-NH2)]-OH; linker N-4 via Suc) | – | – | – | – | – | < 10%
19 | < 10 µM | C[C@H](NC(=O)[C@@H]1Cc2ccc(cc2)NC(=O)CCC(=O)N[C@H](Cc2cccs2)C(=O)N[C@@H](Cc2ccc(-c3ccccc3)cc2)C(=O)N[C@H](Cc2ccccc2)C(=O)N1)C(=O)O [Compound 20] ([d2Thi][Bip][dF][Phe(4-NH2)]A-OH; linker N-4 via Suc) | – | – | – | – | – | < 10%
20 | 10 to 30 µM | O=C1CCC(=O)N[C@H](Cc2ccc(C(F)(F)F)cc2)C(=O)N[C@@H](Cc2ccc(-c3ccccc3)cc2)C(=O)N[C@H](Cc2ccccc2)C(=O)N[C@H](C(=O)O)Cc2ccc(cc2)N1 [Compound 118] ([dPhe(4-CF3)][Bip][dF][Phe(4-NH2)]-OH; linker N-4 via Suc) | – | – | – | – | 10 to 50% | –
